Measured values from ChEMBL document CHEMBL1139215, “Discovery of aminofurazan-azabenzimidazoles as inhibitors of Rho-kinase with high kinase selectivity and antihypertensive activity” (J Med Chem, 2007).

What was measured:
[1] = Volume of distribution in Sprague-Dawley rat at 0.85 mg/kg; assay type: ADME, organism-based; set-up: dose 0.85 mg/kg; settings: in vivo, read-out: Vdss
[2] = Oral bioavailability in Sprague-Dawley rat at 2 mg/kg, po; assay type: ADME, organism-based; settings: in vivo
[3] = system: Aorta; assay: Relaxation of phenylephrine contracted Sprague-Dawley rat aortic rings; assay type: functional, tissue-based
[4] = organism: Homo sapiens; assay: Selectivity for ROCK1 over p70S6K
[5] = biological target: Rho-associated protein kinase 1 (Homo sapiens, UniProt Q13464); assay: Inhibition of human ROCK1 in Sf9 cells; assay type: cell-based
[6] = organism: Homo sapiens; assay: Selectivity for ROCK1 over RSK1
[7] = Clearance in Sprague-Dawley rat at 0.85 mg/kg, iv; assay type: ADME, organism-based; set-up: dose 0.85 mg/kg, route intravenous; settings: in vivo
[8] = Cmax in Sprague-Dawley rat at 2 mg/kg, po; assay type: ADME, organism-based; set-up: dose 2 mg/kg, route oral; settings: in vivo
[9] = Half life in Sprague-Dawley rat at 0.85 mg/kg, iv; assay type: ADME, organism-based; set-up: dose 0.85 mg/kg, route intravenous; settings: in vivo
[10] = Cmax in Sprague-Dawley rat at 0.85 mg/kg, iv; assay type: ADME, organism-based; set-up: dose 0.85 mg/kg, route intravenous; settings: in vivo
[11] = organism: Homo sapiens; assay: Selectivity for ROCK1 over MSK1
[12] = Cmax in Sprague-Dawley rat at 1.2 mg/kg, iv; assay type: ADME, organism-based; set-up: dose 1.2 mg/kg, route intravenous; settings: in vivo
[13] = Oral bioavailability in Sprague-Dawley rat at 3.7 mg/kg, po; assay type: ADME, organism-based; settings: in vivo
[14] = Clearance in Sprague-Dawley rat at 1.2 mg/kg, iv; assay type: ADME, organism-based; set-up: dose 1.2 mg/kg, route intravenous; settings: in vivo
[15] = Cmax in Sprague-Dawley rat at 3.7 mg/kg, po; assay type: ADME, organism-based; set-up: dose 3.7 mg/kg, route oral; settings: in vivo
[16] = Half life in Sprague-Dawley rat at 1.2 mg/kg, iv; assay type: ADME, organism-based; set-up: dose 1.2 mg/kg, route intravenous; settings: in vivo
[17] = Volume of distribution in Sprague-Dawley rat at 1.2 mg/kg, iv; assay type: ADME, organism-based; set-up: dose 1.2 mg/kg, route intravenous; settings: in vivo, read-out: Vdss
[18] = Half life in Sprague-Dawley rat at 1 mg/kg, iv; assay type: ADME, organism-based; set-up: dose 1 mg/kg, route intravenous; settings: in vivo
[19] = Clearance in Sprague-Dawley rat at 1 mg/kg, iv; assay type: ADME, organism-based; set-up: dose 1 mg/kg, route intravenous; settings: in vivo
[20] = Cmax in Sprague-Dawley rat at 1 mg/kg, iv; assay type: ADME, organism-based; set-up: dose 1 mg/kg, route intravenous; settings: in vivo
[21] = Volume of distribution in Sprague-Dawley rat at 1 mg/kg, iv; assay type: ADME, organism-based; set-up: dose 1 mg/kg, route intravenous; settings: in vivo, read-out: Vdss
[22] = Oral bioavailability in Sprague-Dawley rat at 2.2 mg/kg, po; assay type: ADME, organism-based; settings: in vivo
[23] = Cmax in Sprague-Dawley rat at 2.2 mg/kg, po; assay type: ADME, organism-based; set-up: dose 2.2 mg/kg, route oral; settings: in vivo
[24] = organism: Homo sapiens; assay: Selectivity for ROCK1 over GSK3-beta
[25] = organism: Homo sapiens; assay: Selectivity for ROCK1 over CDK2
[26] = Half life in Sprague-Dawley rat at 2.4 mg/kg, iv; assay type: ADME, organism-based; set-up: dose 2.4 mg/kg, route intravenous; settings: in vivo
[27] = Oral bioavailability in Sprague-Dawley rat at 3.3 mg/kg, po; assay type: ADME, organism-based; settings: in vivo
[28] = Clearance in Sprague-Dawley rat at 2.4 mg/kg, iv; assay type: ADME, organism-based; set-up: dose 2.4 mg/kg, route intravenous; settings: in vivo
[29] = Volume of distribution in Sprague-Dawley rat at 2.4 mg/kg, iv; assay type: ADME, organism-based; set-up: dose 2.4 mg/kg, route intravenous; settings: in vivo, read-out: Vdss
[30] = Cmax in Sprague-Dawley rat at 2.4 mg/kg, iv; assay type: ADME, organism-based; set-up: dose 2.4 mg/kg, route intravenous; settings: in vivo
[31] = Cmax in Sprague-Dawley rat at 3.3 mg/kg, po; assay type: ADME, organism-based; set-up: dose 3.3 mg/kg, route oral; settings: in vivo

Sequence of Rho-associated protein kinase 1 (Q13464 whole entry): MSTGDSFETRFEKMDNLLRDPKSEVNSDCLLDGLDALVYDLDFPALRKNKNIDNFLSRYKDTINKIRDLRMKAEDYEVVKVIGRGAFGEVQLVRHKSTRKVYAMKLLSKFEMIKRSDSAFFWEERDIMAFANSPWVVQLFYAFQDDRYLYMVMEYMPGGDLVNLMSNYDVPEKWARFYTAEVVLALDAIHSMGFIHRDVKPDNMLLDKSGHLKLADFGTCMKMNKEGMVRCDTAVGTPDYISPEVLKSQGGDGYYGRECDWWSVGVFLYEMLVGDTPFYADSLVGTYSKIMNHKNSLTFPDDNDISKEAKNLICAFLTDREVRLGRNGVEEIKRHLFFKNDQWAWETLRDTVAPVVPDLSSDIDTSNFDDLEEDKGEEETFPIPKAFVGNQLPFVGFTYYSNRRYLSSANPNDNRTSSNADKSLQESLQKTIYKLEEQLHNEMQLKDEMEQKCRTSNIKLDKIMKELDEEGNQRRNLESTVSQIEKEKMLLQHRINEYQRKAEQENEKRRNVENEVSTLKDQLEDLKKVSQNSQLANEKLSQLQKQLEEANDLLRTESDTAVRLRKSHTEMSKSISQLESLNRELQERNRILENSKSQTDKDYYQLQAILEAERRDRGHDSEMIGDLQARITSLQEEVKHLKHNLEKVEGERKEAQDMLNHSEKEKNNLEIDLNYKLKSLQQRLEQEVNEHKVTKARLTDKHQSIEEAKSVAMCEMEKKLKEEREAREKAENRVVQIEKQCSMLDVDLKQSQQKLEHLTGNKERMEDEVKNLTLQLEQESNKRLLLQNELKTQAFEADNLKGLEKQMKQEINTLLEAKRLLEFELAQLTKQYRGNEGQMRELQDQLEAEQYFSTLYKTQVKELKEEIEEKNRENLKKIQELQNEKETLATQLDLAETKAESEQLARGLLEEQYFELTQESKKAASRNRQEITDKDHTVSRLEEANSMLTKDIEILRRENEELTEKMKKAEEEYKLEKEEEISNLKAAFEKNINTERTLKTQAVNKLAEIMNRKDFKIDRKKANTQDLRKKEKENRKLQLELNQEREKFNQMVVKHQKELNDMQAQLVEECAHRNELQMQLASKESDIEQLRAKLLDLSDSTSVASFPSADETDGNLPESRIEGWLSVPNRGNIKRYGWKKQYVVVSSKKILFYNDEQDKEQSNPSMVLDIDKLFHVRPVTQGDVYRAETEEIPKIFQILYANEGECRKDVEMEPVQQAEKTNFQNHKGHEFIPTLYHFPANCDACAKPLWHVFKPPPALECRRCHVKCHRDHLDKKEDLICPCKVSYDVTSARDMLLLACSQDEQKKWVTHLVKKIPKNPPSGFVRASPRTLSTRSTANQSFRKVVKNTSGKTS

Compound	IC50 [3] [nM]	Selectivity ratio [4]	IC50 [5] [nM]	Selectivity ratio [6]	Selectivity ratio [11]	Selectivity ratio [24]	Selectivity ratio [25]	also measured
CCn1c(-c2nonc2N)nc2cnc(Oc3cccc(NC(=O)c4ccc(N(C)C)cc4)c3)cc21 [GSK-248233A]	106	7	2	45	13			Vd [1]: 0.09 L/kg; bioavailability [2]: 11%; clearance [7]: 0.14 mL/min/kg; Cmax [8]: 3620 ng/mL; half-life [9]: 8.6 h; Cmax [10]: 18600 ng/mL
CCn1c(-c2nonc2N)nc2cnc(Oc3cccc(NC(=O)c4ccccc4)c3)cc21	106	3	4	3.8	2.2			Cmax [12]: 11700 ng/mL; bioavailability [13]: 35%; clearance [14]: 0.18 mL/min/kg; Cmax [15]: 6940 ng/mL; half-life [16]: 9.6 h; Vd [17]: 0.16 L/kg
CCn1c(-c2nonc2N)nc2cnc(Oc3cccc(NC(=O)c4ccc(CN)cc4)c3)cc21	107	> 17	≤ 1	> 70	> 70			half-life [18]: 1.4 h; clearance [19]: 2.3 mL/min/kg; Cmax [20]: 9900 ng/mL; Vd [21]: 0.11 L/kg; bioavailability [22]: 4%; Cmax [23]: 255 ng/mL
CCn1c(-c2nonc2N)nc2cnc(Oc3cccc(N)c3)cc21		13	18	8.9	9.4	300	320	
CCn1c(-c2nonc2N)nc2cnc(Oc3cccc(NC(=O)c4ccc(OCCN(C)C)cc4)c3)cc21	79	> 3	≤ 1	> 80	> 65			half-life [26]: 2.1 h; bioavailability [27]: 40%; clearance [28]: 121 mL/min/kg; Vd [29]: 8.9 L/kg; Cmax [30]: 410 ng/mL; Cmax [31]: 410 ng/mL
CCn1c(-c2nonc2N)nc2cnc(Oc3cccc(C(C)=O)c3)cc21		6.2	13	12	12	> 1000	460	
CCn1c(-c2nonc2N)nc2cnc(Oc3cccc(NC(C)=O)c3)cc21		14	1.8	18	2.8	> 1000	> 1000	
CCn1c(-c2nonc2N)nc2cnc(OC)cc21		15	4.4	18	2.3	250	55	
